Source: patent US12667572B2, “Tricyclic compounds useful in the treatment of cancer, autoimmune and inflammatory disorders” (SCHRÖDINGER, INC., priority 2021, dated 2026)

Target: T1, full-length MALT1 protein His-MALT1(1-824) (Homo sapiens, UniProt Q9UDY8)
T1 construct: full-length MALT1 protein His-MALT1(1-824); His (N); made in house; host or cells: baculovirus-infected insect cells
T1 sequence (Q9UDY8 1-824): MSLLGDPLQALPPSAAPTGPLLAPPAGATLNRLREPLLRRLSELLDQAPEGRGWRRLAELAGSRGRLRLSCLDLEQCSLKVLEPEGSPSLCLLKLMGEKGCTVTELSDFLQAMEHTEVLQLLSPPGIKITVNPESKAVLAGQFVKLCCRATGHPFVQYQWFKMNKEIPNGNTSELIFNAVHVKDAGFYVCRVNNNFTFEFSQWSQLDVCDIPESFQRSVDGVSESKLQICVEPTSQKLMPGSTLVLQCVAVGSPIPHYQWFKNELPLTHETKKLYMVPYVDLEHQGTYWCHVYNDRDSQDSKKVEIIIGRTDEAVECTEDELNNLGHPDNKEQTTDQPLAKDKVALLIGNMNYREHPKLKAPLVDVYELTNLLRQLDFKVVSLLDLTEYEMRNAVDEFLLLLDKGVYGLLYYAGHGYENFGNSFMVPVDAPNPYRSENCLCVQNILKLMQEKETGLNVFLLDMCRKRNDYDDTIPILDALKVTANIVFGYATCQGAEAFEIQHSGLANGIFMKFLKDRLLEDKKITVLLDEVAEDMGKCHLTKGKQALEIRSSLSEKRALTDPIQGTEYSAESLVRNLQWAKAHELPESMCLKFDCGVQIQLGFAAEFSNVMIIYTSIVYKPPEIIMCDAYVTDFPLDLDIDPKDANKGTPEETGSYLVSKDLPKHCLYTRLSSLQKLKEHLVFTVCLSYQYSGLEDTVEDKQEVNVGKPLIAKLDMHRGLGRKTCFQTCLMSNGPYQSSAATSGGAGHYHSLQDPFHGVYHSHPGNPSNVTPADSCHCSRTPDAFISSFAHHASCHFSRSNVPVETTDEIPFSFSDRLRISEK
Test: MALT1 protease assay, Assay 2 (1 nM MALT1, Ac-LRSR-AMC substrate)
Format: biochemical
Conditions: 1 nM MALT1, 50 μM Ac-LRSR-AMC, 2 h pre-incubation, 8 hr incubation at RT
Description: MALT1 protease activity was assessed in an in vitro assay using a tetrapeptide as substrate and full-length MALT1 protein His-MALT1(1-824) purified from baculovirus-infected insect cells. The tetrapeptide substrate is Ac-LRSR-AMC (SM Biochemicals) with Km measured at around 100 μM.
The final assay buffer includes 1 nM (Assay 2) or 2 nM (Assay 1) of MALT1 full-length protein, 50 μM Ac-LRSR-AMC substrate, 50 mM Tris pH 7.5, 600 mM Sodium Citrate, 1 mM DTT, 1 mM EDTA, and 0.05% BSA in 384-well plate format using black microtiter square well plates (Optiplate 384-F, Perkin Elmer).
Test compounds were dissolved in 100% DMSO at stock of 10 mM, with final DMSO concentration 0.1%. Test compounds were pre-incubated with MALT1 protein for 2 h at room temperature. Substrate was added after the pre-incubation and fluorescence signal was measured using Envision at excitation 355 nm and emission 460 nm after 8 hr incubation at RT. Increase in the assay signal was linear over this period and proportional with increase in the enzyme content.
The fluorescence units were transformed to percentage of remaining activity by using the high control (HC, median of fluorescence signal from wells containing MALT1 protein, substrate, and DMSO) and low control (LC, median of fluorescence signal from wells with substrate only) with the formula below: […]
IC50 and Hill coefficients were obtained using Graph Pad Prism (Graph Pad software, Inc, USA) with non-linear regression analysis.

Row | IC50 [nM] | Structure (SMILES)
1 | ≥ 1000 | CC1(C)C[C@@H](C(=O)Nc2cnc(OC(F)F)c(C#N)c2)c2cnc3cc(C(F)F)nn3c21 (single isomer, unassigned) [Example 125, N-(5-cyano-6-(difluoromethoxy)pyridin-3-yl)-2-(difluoromethyl)-8,8-dimethyl-7,8-dihydro-6H-cyclopenta[e]pyrazolo[1,5-a]pyrimidine-6-carboxamide]
2 | 10 to 100 | Cc1cc2c(F)cc3c(n2n1)C(C)(C)CC3C(=O)Nc1cnc(-n2nccn2)c(Cl)c1 (stereo not shown) [Example 171, N-(5-chloro-6-(2H-1,2,3-triazol-2-yl)pyridin-3-yl)-4-fluoro-2,8,8-trimethyl-7,8-dihydro-6H-cyclopenta[e]pyrazolo[1,5-a]pyridine-6-carboxamide]
3 | ≥ 1000 | CC1(C)C[C@@H](C(=O)Nc2cc(N=S(C)(C)=O)nc(C(F)(F)F)c2)c2cnc3cc(F)nn3c21 (single isomer, unassigned) [Example 127, N-(2-((dimethyl(oxo)-λ^6-sulfaneylidene)amino)-6-(trifluoromethyl)pyridin-4-yl)-2-fluoro-8,8-dimethyl-7,8-dihydro-6H-cyclopenta[e]pyrazolo[1,5-a]pyrimidine-6-carboxamide]
4 | 10 to 100 | Cc1cc(NC(=O)[C@@H]2CC(C)(C)c3c2cnc2cc(Cl)nn32)cnc1-n1nccn1 (single isomer, unassigned) [Example 181]
5 | 100 to 1000 | C[C@@]1(C(F)(F)F)C[C@@H](C(=O)Nc2cnc(-n3nccn3)c(Cl)c2)c2cnc3cc(F)nn3c21 (single isomer, unassigned) [Example 186]
6 | ≥ 1000 | CN(C(=O)c1ncc(NC(=O)[C@@H]2CC(C)(C)c3c2cnc2cc(Cl)nn32)cc1C(F)F)C1CC1 (single isomer, unassigned) [Example 72, 2-chloro-N-(6-(cyclopropyl(methyl)carbamoyl)-5-(difluoromethyl)pyridin-3-yl)-8,8-dimethyl-7,8-dihydro-6H-cyclopenta[e]pyrazolo[1,5-a]pyrimidine-6-carboxamide]
7 | ≥ 1000 | CC1(C)C[C@@H](C(=O)Nc2cnc(OC(F)F)c(C#N)c2)c2cnc3c(F)c(F)nn3c21 (single isomer, unassigned) [Example 90, N-(5-cyano-6-(difluoromethoxy)pyridin-3-yl)-2,3-difluoro-8,8-dimethyl-7,8-dihydro-6H-cyclopenta[e]pyrazolo[1,5-a]pyrimidine-6-carboxamide]
8 | 10 to 100 | C[C@]1(C(F)(F)F)C[C@H](C(=O)Nc2cnc(-n3nccn3)c(Cl)c2)c2cnc3cc(F)nn3c21 (single isomer, unassigned) [Example 187]

Second part, the compound before the results:

Row | Structure (SMILES) | IC50 [nM]
9 | CC(C)(O)c1ncc(NC(=O)[C@H]2CC3(CCC3)c3c2cnc2cc(F)nn32)cc1Cl (single isomer, unassigned) [Example 105, N-(5-chloro-6-(2-hydroxypropan-2-yl)pyridin-3-yl)-2′-fluoro-6′,7′-dihydrospiro[cyclobutane-1,8′-cyclopenta[e]pyrazolo[1,5-a]pyrimidine]-6′-carboxamide] | ≥ 1000
10 | O=C(Nc1cnc(-n2nccn2)c(Cl)c1)C1CC2(COC2)c2c1cnc1cc(Cl)nn21 (stereo not shown) [Example 165, 2-chloro-N-(5-chloro-6-(2H-1,2,3-triazol-2-yl)pyridin-3-yl)-6,7-dihydrospiro[cyclopenta[e]pyrazolo[1,5-a]pyrimidine-8,3′-oxetane]-6-carboxamide] | ≥ 1000
11 | CC1(C)C[C@@H](C(=O)Nc2cnc(-n3nccn3)c(Cl)c2)c2cnc3c(F)c(F)nn3c21 (single isomer, unassigned) [Example 121, N-(5-chloro-6-(2H-1,2,3-triazol-2-yl)pyridin-3-yl)-2,3-difluoro-8,8-dimethyl-7,8-dihydro-6H-cyclopenta[e]pyrazolo[1,5-a]pyrimidine-6-carboxamide] | 100 to 1000
12 | CC1(C)CC(C(=O)Nc2cnc(OC(F)F)c(Cl)c2)c2cnc3cc(F)nn3c21 (single isomer, unassigned) [Example 76, N-(5-chloro-6-(difluoromethoxy)pyridin-3-yl)-2-fluoro-8,8-dimethyl-7,8-dihydro-6H-cyclopenta[e]pyrazolo[1,5-a]pyrimidine-6-carboxamide] | ≥ 1000
13 | N#Cc1cc(NC(=O)C2CC3(CCOCC3)c3c2cnc2cc(F)nn32)cnc1OC(F)F (single isomer, unassigned) [Example 147, N-(5-cyano-6-(difluoromethoxy)pyridin-3-yl)-2-fluoro-2′,3′,5′,6,6′,7-hexahydrospiro[cyclopenta[e]pyrazolo[1,5-a]pyrimidine-8,4′-pyran]-6-carboxamide] | ≥ 1000
14 | CC1(C)CC(C(=O)Nc2cnc(OC3CC3)c(Cl)c2)c2cnc3cc(Cl)nn3c21 (single isomer, unassigned) [Example 74, 2-chloro-N-(5-chloro-6-cyclopropoxypyridin-3-yl)-8,8-dimethyl-7,8-dihydro-6H-cyclopenta[e]pyrazolo[1,5-a]pyrimidine-6-carboxamide] | ≥ 1000
15 | CCO[C@@]1(C(F)(F)F)C[C@H](C(=O)Nc2cnc(-n3nccn3)c(Cl)c2)c2cnc3cc(Cl)nn3c21 (single isomer, unassigned) [Example 168, (trans)-2-chloro-N-(5-chloro-6-(2H-1,2,3-triazol-2-yl)pyridin-3-yl)-8-ethoxy-8-(trifluoromethyl)-7,8-dihydro-6H-cyclopenta[e]pyrazolo[1,5-a]pyrimidine-6-carboxamide] | 100 to 1000
16 | CC1(C)CC(C(=O)Nc2cnc(N3CCC3=O)c(Cl)c2)c2cnc3cc(F)nn3c21 (stereo not shown) [Example 176, N-(5-chloro-6-(2-oxoazetidin-1-yl)pyridin-3-yl)-2-fluoro-8,8-dimethyl-7,8-dihydro-6H-cyclopenta[e]pyrazolo[1,5-a]pyrimidine-6-carboxamide] | 100 to 1000
17 | CC(C)(C)C1OC(=O)c2cc(NC(=O)C3CC4(CCC4)c4c3cnc3cc(F)nn43)cnc21 (stereo not shown) [Example 166, N-(7-(tert-butyl)-5-oxo-5,7-dihydrofuro[3,4-b]pyridin-3-yl)-2′-fluoro-6′,7′-dihydrospiro[cyclobutane-1,8′-cyclopenta[e]pyrazolo[1,5-a]pyrimidine]-6′-carboxamide] | ≥ 1000
18 | C[C@]1(C(F)(F)F)C[C@@H](C(=O)Nc2cnc(-n3nccn3)c(Cl)c2)c2cnc3cc(F)nn3c21 (single isomer, unassigned) [Example 184] | 100 to 1000
19 | CC1(C)C[C@@H](C(=O)Nc2cnc(-n3nccn3)c(C(F)(F)F)c2)c2cnc3cc(F)nn3c21 (single isomer, unassigned) [Example 150, N-(6-(2H-1,2,3-triazol-2-yl)-5-(trifluoromethyl)pyridin-3-yl)-2-fluoro-8,8-dimethyl-7,8-dihydro-6H-cyclopenta[e]pyrazolo[1,5-a]pyrimidine-6-carboxamide] | 10 to 100
20 | COc1cnc(C(F)(F)F)cc1NC(=O)C1CC(C)(C)c2c1cnc1cc(F)nn21 (single isomer, unassigned) [Example 93, 2-fluoro-N-(5-methoxy-2-(trifluoromethyl)pyridin-4-yl)-8,8-dimethyl-7,8-dihydro-6H-cyclopenta[e]pyrazolo[1,5-a]pyrimidine-6-carboxamide] | ≥ 1000
21 | CC1(C)CC(C(=O)Nc2cnc(-n3nccn3)c(Cl)c2)c2cnn3cc(C(F)F)nc3c21 (single isomer, unassigned) [Example 203, N-(5-chloro-6-(2H-1,2,3-triazol-2-yl)pyridin-3-yl)-2-(difluoromethyl)-9,9-dimethyl-8,9-dihydro-7H-cyclopenta[d]imidazo[1,2-b]pyridazine-7-carboxamide] | 10 to 100
22 | CC1(C)C[C@@H](C(=O)Nc2cnc(-n3nccn3)c(C(F)F)c2)c2cnc3cc(Cl)nn3c21 (single isomer, unassigned) [Example 46, 2-chloro-N-(5-(difluoromethyl)-6-(2H-1,2,3-triazol-2-yl)pyridin-3-yl)-8,8-dimethyl-7,8-dihydro-6H-cyclopenta[e]pyrazolo[1,5-a]pyrimidine-6-carboxamide] | ≥ 1000
